How the values were obtained:
Beta-secretase 1 = Beta-secretase 1 (Homo sapiens, UniProt P56817); experiment: HTRF FRET Assay: The compounds of the invention were determined to be potent inhibitors of BACE-1 using the following assay.The following reagents were used in this assay. Na+-Acetate pH 5.0; 1% Brij-35; Glycerol; Dimethyl Sulfoxide (DMSO); Recombinant human soluble BACE-1 catalytic domain (>95% pure); APP Swedish mutant peptide substrate (QSY7-APPswe-Eu): QSY7-[…]-Europium-amide.A homogeneous time-resolved FRET assay can be used to determine IC50 values for inhibitors of the soluble human BACE-1 catalytic domain. This assay monitors the increase of 620 nm fluorescence that resulted from BACE-1 cleavage of an APPswedish APPswe mutant peptide FRET substrate (QSY7-[…]-Europium-amide). This substrate contains an N-terminal QSY7 moiety that serves as a quencher of the C-terminal Europium fluorophore (620 nm Em). In the absence of enzyme activity, 620 nm fluorescence is low in the assay and increased linearly over 3 hours in the presence of uninhibited BACE-1 enzyme. Inhibition of BACE-1 cleavage of the QSY7-APPswe-Eu substrate by inhibitors is manifested as a suppression of 620 nm fluorescence.
Beta-secretase 2 = molecular target: T1, Beta-secretase 2 (Homo sapiens, UniProt Q9Y5Z0); experiment: BACE-2 Assay: The compounds of the invention were determined to be potent inhibitors of BACE-2 using the following assay. Inhibitor IC50s at purified human autoBACE-2 are determined in a time-resolved endpoint proteolysis assay that measures hydrolysis of the QSY7-[…]-Eu-amide FRET peptide substrate (BACE-HTRF assay). BACE-mediated hydrolysis of this peptide results in an increase in relative fluorescence (RFU) at 620 nm after excitation with 320 nm light Inhibitor compounds, prepared at 3× the desired final concentration in 1×BACE assay buffer (20 mM sodium acetate pH 5.0, 10% glycerol, 0.1% Brij-35) supplemented with 7.5% DMSO are pre-incubated with an equal volume of autoBACE-2 enzyme diluted in 1×BACE assay buffer (final enzyme concentration 1 nM) in black 384-well NUNC plates for 30 minutes at 30° C. […] DMSO is present at 5% final concentration in the assay. Following laser excitation of sample wells at 320 nm, the fluorescence signal at 620 nm is collected for 400 ms following a 50 μs delay on a RUBYstar HTRF plate reader (BMG Labtechnologies). Raw RFU data is normalized to maximum (1.0 nM BACE/DMSO) and minimum (no enzyme/DMSO) RFU values.
T1 sequence (Q9Y5Z0 whole entry): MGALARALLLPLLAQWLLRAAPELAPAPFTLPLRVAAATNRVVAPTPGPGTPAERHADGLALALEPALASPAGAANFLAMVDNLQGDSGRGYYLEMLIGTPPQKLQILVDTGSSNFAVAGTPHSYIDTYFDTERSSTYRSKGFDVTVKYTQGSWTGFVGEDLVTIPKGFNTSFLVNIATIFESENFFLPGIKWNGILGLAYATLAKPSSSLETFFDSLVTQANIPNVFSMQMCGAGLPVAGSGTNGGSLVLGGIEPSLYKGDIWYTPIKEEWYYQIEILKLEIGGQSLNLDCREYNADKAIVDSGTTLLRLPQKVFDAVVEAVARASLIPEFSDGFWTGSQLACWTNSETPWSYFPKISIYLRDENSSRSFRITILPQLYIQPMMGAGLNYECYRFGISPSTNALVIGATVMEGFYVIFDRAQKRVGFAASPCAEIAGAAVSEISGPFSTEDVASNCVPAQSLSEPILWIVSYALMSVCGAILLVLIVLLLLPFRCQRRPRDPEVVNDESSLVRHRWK

Cathepsin D = Cathepsin D (Homo sapiens, UniProt P07339); experiment: Cathepsin-D Assay: The following reagents were used in this assay: Na+-Acetate pH 5.0; 1% Brij-35; Dimethyl Sulfoxide (DMSO); Purified human Cathepsin-D (>95% pure); Aspartyl protease peptide substrate AC-Cys(Eu_Chelate)-Gly-Lys-Pro_ile_leu_phe-Phe-Arg-Leu-Lys(QSY7)-ASP-ASP-NH2.As noted above, certain compounds of the invention exhibit good selectivity of BACE-1 over Cathepsin-D. A homogeneous …
Chain of Cathepsin D (P07339 65-162 limits assumed): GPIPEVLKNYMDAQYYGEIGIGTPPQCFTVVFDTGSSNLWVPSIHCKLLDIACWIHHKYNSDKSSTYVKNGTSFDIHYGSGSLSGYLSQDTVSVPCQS
Chain of Cathepsin D (P07339 169-412 limits assumed): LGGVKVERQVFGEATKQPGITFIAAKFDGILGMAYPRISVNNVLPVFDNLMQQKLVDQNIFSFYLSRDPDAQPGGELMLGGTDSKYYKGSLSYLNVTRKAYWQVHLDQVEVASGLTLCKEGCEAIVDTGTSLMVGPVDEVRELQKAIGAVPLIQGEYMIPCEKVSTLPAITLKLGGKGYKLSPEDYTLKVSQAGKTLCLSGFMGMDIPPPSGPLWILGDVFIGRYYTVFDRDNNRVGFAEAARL
Description: This substrate contains an C-terminal QSY7 moiety that serves as a quencher of the N-terminal Europium fluorophore (620 nm Em). In the absence of enzyme activity, 620 nm fluorescence is low in the assay and increased linearly over 1 hour in the presence of uninhibited Cathepsin-D enzyme. Inhibition of Cathespin D cleavage of the Eu-Aspartyl Protease-QSY7 substrate by inhibitors is manifested as a suppression of 620 nm fluorescence.

Chain of Beta-secretase 1 (P56817 whole entry, the tested form may be a part): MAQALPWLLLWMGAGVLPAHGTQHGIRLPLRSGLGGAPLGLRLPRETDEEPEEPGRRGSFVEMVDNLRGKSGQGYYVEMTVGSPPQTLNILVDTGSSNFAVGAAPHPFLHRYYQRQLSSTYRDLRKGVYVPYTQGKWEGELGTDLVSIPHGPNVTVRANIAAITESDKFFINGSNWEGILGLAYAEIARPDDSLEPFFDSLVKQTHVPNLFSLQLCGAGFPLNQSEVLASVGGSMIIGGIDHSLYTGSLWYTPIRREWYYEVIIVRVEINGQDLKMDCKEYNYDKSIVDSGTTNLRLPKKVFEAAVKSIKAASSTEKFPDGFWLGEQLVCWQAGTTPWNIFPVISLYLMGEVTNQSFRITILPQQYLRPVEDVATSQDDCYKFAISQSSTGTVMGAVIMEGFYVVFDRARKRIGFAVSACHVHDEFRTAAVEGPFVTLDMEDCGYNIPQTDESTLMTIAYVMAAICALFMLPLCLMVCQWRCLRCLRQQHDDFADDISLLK

Compound | Ki (Beta-secretase 1) | Ki (Beta-secretase 2) | Ki (Cathepsin D)
C[C@@]1(c2cc(Nc3ncnc4cc(C#N)cnc34)ncc2F)CS(=O)(=O)[C@@](C)(C2CC2)C(N)=N1 | 13 nM | 19 nM | > 9400 nM
C[C@@]1(c2cc(Nc3ccnc4cccnc34)ncc2F)CS(=O)(=O)[C@@](C)(C2CC2)C(N)=N1 | 59 nM | 3.6 nM | > 9400 nM
COc1cnc2c(Nc3ccc(F)c([C@]4(C)CS(=O)(=O)[C@@](C)(C5CC5)C(N)=N4)c3)ccnc2c1 | 27 nM | 20 nM | > 9400 nM
C[C@@]1(c2cc(Nc3nccc4cc(C#N)cnc34)ccc2F)CS(=O)(=O)[C@@](CF)(C2CC2)C(N)=N1 | 1.3 nM | 0.6 nM | 563 nM
C[C@@]1(c2cc(Nc3ccnc4cc(F)cnc34)ncc2F)CS(=O)(=O)[C@@](C)(C2CC2)C(N)=N1 | 8.5 nM | 1.7 nM | 4900 nM
C[C@@]1(c2cc(Nc3nccc4cc(F)cnc34)ncc2F)CS(=O)(=O)[C@@](C)(C2CC2)C(N)=N1 | 12 nM | 1 nM | > 9400 nM
COc1cnc2c(Nc3ccc(F)c([C@]4(C)CS(=O)(=O)[C@@](C)(C5CC5)C(N)=N4)c3)ccnc2n1 | 40 nM | 53 nM | > 9400 nM

Continued, values first:

Ki (Beta-secretase 1) | Ki (Beta-secretase 2) | Ki (Cathepsin D) | Compound
1.8 nM | 24 nM | > 9400 nM | CC#CCOc1cnc2c(Nc3cnc(F)c([C@]4(C)CS(=O)(=O)[C@@](C)(C5CC5)C(N)=N4)c3)nccc2n1
1.5 nM | 1.2 nM | > 9400 nM | CC#CCOc1cnc2c(Nc3cc([C@]4(C)CS(=O)(=O)[C@@](C)(C5CC5)C(N)=N4)c(F)cn3)nccc2n1
5.2 nM | 2.2 nM | > 9400 nM | COc1cnc2c(Nc3cc([C@]4(C)CS(=O)(=O)[C@@](C)(C5CC5)C(N)=N4)c(F)cn3)ccnc2n1
2.8 nM | 120 nM | > 9400 nM | CC#CCOc1cnc2c(Nc3cnc(F)c([C@]4(C)CS(=O)(=O)[C@@](C)(C5CC5)C(N)=N4)c3)nccc2c1

— ChEMBL document CHEMBL5726333, “C2-carbocyclic iminothiazine dioxides as BACE inhibitors, compositions, and their use” (2017)
